This note sets out measurements from ChEMBL document CHEMBL6083190, “Synthesis and mechanistic study of Aβ42 C-terminus domain derived tetrapeptides that inhibit Alzheimer's Aβ-aggregation-induced neurotoxicity” (Bioorg Med Chem Lett, 2024).

Calls of active or inactive are those of the source. The rule behind the calls is not given here. Non-standard residues stand in square brackets, D forms with d. Residues, ends and D or L forms follow the SMILES beside them. ξ: configuration not given here. Tle = CC(C)(C)[C@H](N)C(=O)O; ξOic = O=C(O)C1CC2CCCCC2N1; Aib = CC(C)(N)C(=O)O Bounds are passed on as bounds.

The subject of experiment [1] is PC-12. In words: Protection against amyloid beta-induced neurotoxicity in rat PC-12 cells assessed as cell viability at 4 uM by MTT assay (reference value: 63.6 %). The format is functional. The note with it: read-out: Activity.
The nature of experiment [2]: Inhibition of amyloid beta-induced neurotoxicity in rat PC-12 cells at 4 uM by MTT assay relative to control. The experiment is classed as functional. Background: Formazan colour is commonly taken as a measure of viable cells.
Experiment [3] deals with PC-12. Nature of the experiment: Protection against amyloid beta-induced neurotoxicity in rat PC-12 cells assessed as cell viability at 2 uM by MTT assay (reference value: 63.6 %). The note with it: read-out: Activity. The experiment is classed as functional.
In experiment [4] the test system is PC-12. In words: Protection against amyloid beta-induced neurotoxicity in rat PC-12 cells assessed as cell viability at 10 uM by MTT assay (reference value: 63.6 %). The experiment is classed as functional. As to conditions: read-out: Activity.
Experiment [5] can be described thus: Inhibition of amyloid beta-induced neurotoxicity in rat PC-12 cells at 2 uM by MTT assay relative to control. The format is functional.
A short description of experiment [6]: Inhibition of amyloid beta-induced neurotoxicity in rat PC-12 cells at 10 uM by MTT assay relative to control. The format is functional.
Experiment [7] deals with Amyloid-beta precursor protein (Homo sapiens) (UniProt P05067). Nature of the experiment: Inhibition of amyloid beta (1 to 42) (unknown origin) self-aggregation assessed as absence of fibrillar aggregates at 1:5 amyloid-beta:compound concentration ratio measured immediately by scanning transmission electron microscopic analysis.
Experiment [8] shares this target. In words: Inhibition of amyloid beta (1 to 42) (unknown origin) self-aggregation assessed as absence of fibrillar aggregates at 1:5 amyloid-beta:compound concentration ratio incubated for 72 hrs by high-resolution transmission electron microscopic analysis.
Experiment [9] shares this target. Nature of the experiment: Inhibition of amyloid beta (1 to 42) (unknown origin) self-aggregation assessed as absence of fibrillar aggregates at 1:5 amyloid-beta:compound concentration ratio incubated for 72 hrs by scanning transmission electron microscopic analysis.
Experiment [10] shares this target. In words: Inhibition of amyloid beta (1 to 42) (unknown origin) self-aggregation assessed as absence of fibrillar aggregates at 1:5 amyloid-beta:compound concentration ratio measured immediately by high-resolution transmission electron microscopic analysis.
For experiment [11] the target is unchanged. Nature of the experiment: Inhibition of amyloid beta (1 to 42) (unknown origin) self aggregation at 2 to 10 uM by ThT fluorescence assay. As to conditions: dose 2-10 µM.
Experiment [12] has the same target. In words: Inhibition of amyloid beta (1 to 42) (unknown origin) self aggregation by ThT fluorescence assay relative to control. As to conditions: concentration not given here.

Sequence of Amyloid-beta precursor protein (Homo sapiens) (P05067 whole entry): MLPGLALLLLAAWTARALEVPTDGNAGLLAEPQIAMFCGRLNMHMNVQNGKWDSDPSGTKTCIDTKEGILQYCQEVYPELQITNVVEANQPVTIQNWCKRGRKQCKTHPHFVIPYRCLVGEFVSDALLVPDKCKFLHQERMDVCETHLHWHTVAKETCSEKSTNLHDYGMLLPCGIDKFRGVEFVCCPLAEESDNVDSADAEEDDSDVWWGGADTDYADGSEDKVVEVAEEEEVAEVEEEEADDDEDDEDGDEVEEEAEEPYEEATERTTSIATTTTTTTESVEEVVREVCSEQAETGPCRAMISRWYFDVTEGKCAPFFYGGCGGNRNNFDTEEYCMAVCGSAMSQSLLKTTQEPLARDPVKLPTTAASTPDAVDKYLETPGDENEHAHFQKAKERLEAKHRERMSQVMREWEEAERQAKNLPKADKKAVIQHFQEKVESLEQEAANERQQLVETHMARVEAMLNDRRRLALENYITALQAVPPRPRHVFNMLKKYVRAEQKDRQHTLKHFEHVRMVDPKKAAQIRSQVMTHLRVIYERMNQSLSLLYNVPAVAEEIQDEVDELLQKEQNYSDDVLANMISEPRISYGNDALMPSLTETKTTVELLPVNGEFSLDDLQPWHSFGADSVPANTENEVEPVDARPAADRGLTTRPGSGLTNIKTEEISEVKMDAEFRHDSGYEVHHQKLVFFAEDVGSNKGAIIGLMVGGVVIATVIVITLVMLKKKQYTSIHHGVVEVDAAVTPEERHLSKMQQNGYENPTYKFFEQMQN

Consider `CC[C@H](C)[C@H](NC(=O)[C@@H](NC(=O)[C@@H](N)C(C)C)C(C)C)C(=O)N[C@@H](C)C(N)=O`, for which the viability at 4 µM in the experiment on PC-12 [1] was 59.4%. The inhibition (as a rule, the drop in the measured response relative to a control, in per cent) at 4 µM in experiment [2] was 0%. For the same compound, the viability at 2 µM in the experiment on PC-12 [3] is 60.7%. In addition, the viability at 10 µM in the experiment with PC-12 [4] amounted to 63.4%. Testing at 2 µM in experiment [5] gave an inhibition of 0%. In experiment [6], this compound yielded an inhibition at 10 µM of 0%.

In the case of `CC[C@H](C)[C@H](NC(=O)[C@H](C)N)C(=O)N[C@H](C(=O)N[C@H](C(N)=O)C(C)C)C(C)C`, in the experiment on PC-12 [1], the viability at 4 µM worked out at 69%. For the same compound, in [2], at 4 µM the inhibition was 15%. In the experiment on PC-12 [3], the viability at 2 µM worked out at 55.2%. Further, the viability at 10 µM in the experiment with PC-12 [4] worked out at 58.3%. Moreover, the inhibition at 2 µM in [5] was determined as 0%. Moreover, 10 µM produced 0% inhibition in [6].

On to `CC[C@H](C)[C@H](NC(=O)[C@@H](NC(=O)C1CC2CCCCC2N1)C(C)C)C(=O)N[C@@H](C)C(N)=O` (stereo partly specified), for which the viability at 4 µM in the experiment with PC-12 [1] came out at 63.3%. Further, the inhibition result was “Not active; Small Aggregates Observed” in [7]; “Not active; Formation Of Small, Non-Fibrillar Like Amorphous Aggregates Observed” in [8]; “Not active; Formation Of Small, Non-Fibrillar Like Amorphous Aggregates Observed” in experiment [9]; “Not active; Small Aggregates Observed” in [10]. 4 µM produced 0% inhibition in experiment [2]. Also, the viability at 2 µM with PC-12 [3] is 65.3%. In addition, the viability at 10 µM in the experiment on PC-12 [4] was found to be 57.7%. The inhibition at 2 µM in [5] was found to be 5%. The inhibition at 10 µM in experiment [6] was found to be 0%.

Consider `CC[C@H](C)[C@H](NC(=O)[C@@H](NC(=O)C1Cc2ccccc2CN1)C(C)C)C(=O)N[C@@H](C)C(N)=O` (stereo partly specified), for which the viability at 4 µM with PC-12 [1] amounted to 62.4%. Besides, the inhibition entry in experiment [11] was “Active”. This compound also displayed an inhibition at 4 µM in [2] of 0%. Also, the viability at 2 µM in the experiment on PC-12 [3] turned out to be 68.8%. In addition, the viability at 10 µM in the experiment with PC-12 [4] came out at 61.8%. 2 µM produced 14% inhibition in [5]. Further, in experiment [6], 10 µM produced 0% inhibition.

On to `CC[C@H](C)[C@H](NC(=O)[C@H](C)N)C(=O)N[C@H](C(=O)N[C@H](Cc1ccccc1)C(N)=O)C(C)C`, for which, in the experiment on PC-12 [1], the viability at 4 µM was determined as 69.1%. Further, the inhibition entry in [11] was “Active”. The compound further returned an inhibition at 4 µM in experiment [2] of 15%. For the same compound, in the experiment on PC-12 [3], the viability at 2 µM amounted to 55.2%. Besides, the viability at 10 µM with PC-12 [4] stood at 76.4%. Further, 2 µM produced 0% inhibition in experiment [5]. The compound further returned an inhibition at 10 µM in experiment [6] of 35%.

For `CC[C@@H](C)[C@@H](NC(=O)[C@H](NC(=O)[C@H](N)C(C)C)C(C)C)C(=O)N[C@H](C)C(N)=O`, the viability at 4 µM with PC-12 [1] is 65.6%. Besides, the inhibition at 4 µM in experiment [2] is 6%. Also, the viability at 2 µM in the experiment with PC-12 [3] turned out to be 73.3%. Moreover, the viability at 10 µM in the experiment on PC-12 [4] was 64.1%. The same compound showed an inhibition at 2 µM in experiment [5] of 27%. This compound gave an inhibition at 10 µM in experiment [6] of 1%.

Take `CC[C@H](C)[C@H](NC(=O)[C@H](N)Cc1ccccc1)C(=O)N[C@H](C(=O)N[C@H](C(N)=O)C(C)C)C(C)C`: in the experiment with PC-12 [1], the viability at 4 µM was 54.7%. In addition, the inhibition at 4 µM in experiment [2] was determined as 0%. Further, the viability at 2 µM with PC-12 [3] was 68.4%. In addition, the viability at 10 µM in the experiment on PC-12 [4] is 67%. The same compound had an inhibition at 2 µM in [5] of 13%. In [6], this compound displayed an inhibition at 10 µM of 9.3%.

In the case of `CC[C@@H](C)[C@@H](NC(=O)[C@@H](C)N)C(=O)N[C@@H](C(=O)N[C@@H](C(N)=O)C(C)C)C(C)C`, the viability at 4 µM in the experiment on PC-12 [1] was 63.3%. Moreover, at 4 µM the inhibition in experiment [2] was 0%. Moreover, in the experiment on PC-12 [3], the viability at 2 µM was 68.7%. Moreover, in the experiment with PC-12 [4], the viability at 10 µM was found to be 74.6%. The compound further returned an inhibition at 2 µM in experiment [5] of 14%. The inhibition at 10 µM in [6] came out at 30%.

With `CC[C@H](C)[C@H](NC(=O)C1Cc2ccccc2CN1C(=O)[C@@H](N)C(C)C)C(=O)N[C@@H](C)C(N)=O` (stereo partly specified), in the experiment on PC-12 [1], the viability at 4 µM was 80.3%. In addition, in [11], the inhibition entry was “Active”. The same compound registered an inhibition in experiment [12] of over 50%. Moreover, the inhibition at 4 µM in experiment [2] amounted to 46%. The viability at 2 µM with PC-12 [3] was found to be 95.4%. Further, the viability at 10 µM in the experiment with PC-12 [4] is 76.1%. Further, 2 µM produced 87% inhibition in [5]. For the same compound, the inhibition at 10 µM in experiment [6] turned out to be 34%.

In the case of `CC[C@H](C)[C@H](NC(=O)[C@H](C)N)C(=O)N[C@H](C(=O)NC(C)(C)C(N)=O)C(C)C` (H-AIV[Aib]-NH2), in the experiment with PC-12 [1], the viability at 4 µM turned out to be 67%. For the same compound, the inhibition result in experiment [11] was “Active”. Besides, in experiment [2], the inhibition at 4 µM came out at 9%. The viability at 2 µM in the experiment on PC-12 [3] was 75.3%. For the same compound, in the experiment on PC-12 [4], the viability at 10 µM is 70.9%. The compound further gave an inhibition at 2 µM in experiment [5] of 32%. This compound also displayed an inhibition at 10 µM in [6] of 20%.

Turning to `CC(C)[C@H](NC(=O)[C@@H](NC(=O)C(C)(C)NC(=O)[C@H](C)N)C(C)C)C(N)=O` (H-A[Aib]VV-NH2), the viability at 4 µM in the experiment on PC-12 [1] turned out to be 75.3%. The inhibition at 4 µM in [2] stood at 32%. Moreover, in the experiment with PC-12 [3], the viability at 2 µM was 52.1%. Besides, the viability at 10 µM in the experiment on PC-12 [4] was found to be 59.6%. Moreover, in experiment [5], the inhibition at 2 µM was 0%. Moreover, in [6], testing at 10 µM gave an inhibition of 0%.

With `CC[C@H](C)[C@H](NC(=O)[C@@H](NC(=O)[C@@H](N)C(C)C)C(C)C)C(=O)N[C@@H](Cc1ccccc1)C(N)=O` (H-VVIF-NH2), in the experiment on PC-12 [1], the viability at 4 µM is 83.6%. In experiment [12], this compound gave an inhibition of over 50%. This compound yielded an inhibition at 4 µM in [2] of 55%. Also, the viability at 2 µM with PC-12 [3] stood at 85.6%. The viability at 10 µM with PC-12 [4] was found to be 66.9%. In experiment [5], this compound gave an inhibition at 2 µM of 60%. The inhibition at 10 µM in experiment [6] stood at 9%.

Regarding `CC[C@H](C)[C@H](NC(=O)[C@@H](NC(=O)[C@@H](N)C(C)C)C(C)(C)C)C(=O)N[C@@H](C)C(N)=O` (H-V[Tle]IA-NH2), in the experiment on PC-12 [1], the viability at 4 µM was determined as 78.8%. The inhibition entry in experiment [11] is “Active”. Also, the inhibition at 4 µM in [2] is 42%. Further, in the experiment with PC-12 [3], the viability at 2 µM was determined as 77.7%. In addition, the viability at 10 µM with PC-12 [4] was 74.9%. In [5], this compound showed an inhibition at 2 µM of 39%. Further, the inhibition at 10 µM in experiment [6] stood at 31%.

`CC[C@H](C)[C@H](NC(=O)C1CC2CCCCC2N1C(=O)[C@@H](N)C(C)C)C(=O)N[C@@H](C)C(N)=O` (stereo partly specified) (H-V[ξOic]IA-NH2): the viability at 4 µM in the experiment on PC-12 [1] was 78.6%. Besides, the inhibition at 4 µM in experiment [2] is 41%. For the same compound, the viability at 2 µM with PC-12 [3] came to 64.1%. Moreover, the viability at 10 µM with PC-12 [4] is 62.1%. In experiment [5], this compound came in with an inhibition at 2 µM of 1%. In experiment [6], this compound registered an inhibition at 10 µM of 0%.

Turning to `CC[C@H](C)[C@H](NC(=O)[C@@H](NC(=O)[C@@H](N)C(C)(C)C)C(C)C)C(=O)N[C@@H](C)C(N)=O` (H-[Tle]VIA-NH2), the viability at 4 µM with PC-12 [1] came to 61.1%. In addition, the inhibition at 4 µM in experiment [2] was 0%. The viability at 2 µM in the experiment with PC-12 [3] worked out at 79.9%. Besides, the viability at 10 µM in the experiment on PC-12 [4] is 64.6%. Further, the inhibition at 2 µM in experiment [5] is 45%. The compound further yielded an inhibition at 10 µM in experiment [6] of 3%.
